Laboratory results published in ChEMBL document CHEMBL1144422, “Symmetrical bis-quinolinium compounds: new human choline kinase inhibitors with antiproliferative activity against the HT-29 cell line” (J Med Chem, 2005).

What was measured:
[1] = target: Choline kinase alpha (Homo sapiens, UniProt P35790); assay: Ex vivo inhibitory concentration against human choline kinase
[2] = tested on: HT-29; assay: In vitro antiproliferative effect in […] HT 29 cells; assay type: functional, cell-based; conditions: Homo sapiens
[3] = tested on: HT-29; assay: Antiproliferative activity against HT 29 cells; assay type: functional, cell-based; conditions: Homo sapiens

Choline kinase alpha, sequence (P35790 whole entry): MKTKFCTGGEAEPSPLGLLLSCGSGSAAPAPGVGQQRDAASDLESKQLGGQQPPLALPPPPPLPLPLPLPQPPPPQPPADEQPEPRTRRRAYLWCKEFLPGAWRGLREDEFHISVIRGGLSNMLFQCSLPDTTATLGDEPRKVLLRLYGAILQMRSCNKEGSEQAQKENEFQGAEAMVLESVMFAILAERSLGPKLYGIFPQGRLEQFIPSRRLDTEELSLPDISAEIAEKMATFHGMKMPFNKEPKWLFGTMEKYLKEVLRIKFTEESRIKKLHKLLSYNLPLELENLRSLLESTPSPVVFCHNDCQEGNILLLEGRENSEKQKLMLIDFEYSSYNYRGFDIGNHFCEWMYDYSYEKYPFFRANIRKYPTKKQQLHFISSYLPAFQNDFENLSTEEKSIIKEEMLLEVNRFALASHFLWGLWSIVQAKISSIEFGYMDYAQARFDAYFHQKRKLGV

IC50 [1] | IC50 [2] | IC50 [3] | SMILES
11900 nM | 4400 nM |  | Cc1c[n+](Cc2cccc(-c3cccc(C[n+]4cc(C)c(N)c5ccccc54)c3)c2)c2ccccc2c1N
9000 nM | 270 nM | 450 nM | CN(C)c1cc[n+](Cc2ccc(CCc3ccc(C[n+]4ccc(N(C)C)c5ccc(Cl)cc54)cc3)cc2)c2cc(Cl)ccc12
 | 800 nM |  | CN(c1ccc(Cl)cc1)c1cc[n+](Cc2ccc(CCc3ccc(C[n+]4ccc(N(C)c5ccc(Cl)cc5)c5ccc(Cl)cc54)cc3)cc2)c2cc(Cl)ccc12
3100 nM | 1000 nM |  | CN(c1ccccc1)c1cc[n+](Cc2cccc(-c3cccc(C[n+]4ccc(N(C)c5ccccc5)c5ccc(Cl)cc54)c3)c2)c2cc(Cl)ccc12
20600 nM | 800 nM |  | CN(C)c1cc[n+](Cc2ccc(-c3ccc(C[n+]4ccc(N(C)C)c5ccc(Cl)cc54)cc3)cc2)c2cc(Cl)ccc12
2300 nM | 300 nM |  | c1ccc(Nc2cc[n+](Cc3ccc(CCc4ccc(C[n+]5ccc(Nc6ccccc6)c6ccccc65)cc4)cc3)c3ccccc23)cc1
19800 nM | 2400 nM |  | Clc1ccc2c(N3CCCC3)cc[n+](Cc3ccc(-c4ccc(C[n+]5ccc(N6CCCC6)c6ccc(Cl)cc65)cc4)cc3)c2c1
80000 nM | 2000 nM |  | Nc1cc[n+](Cc2ccc(CCc3ccc(C[n+]4ccc(N)c5ccccc54)cc3)cc2)c2ccccc12
17800 nM | 700 nM |  | c1ccc(Nc2cc[n+](Cc3ccc(-c4ccc(C[n+]5ccc(Nc6ccccc6)c6ccccc65)cc4)cc3)c3ccccc23)cc1
1200 nM | 1900 nM |  | Nc1cc[n+](Cc2cccc(-c3cccc(C[n+]4ccc(N)c5ccccc54)c3)c2)c2ccccc12
20600 nM | 1900 nM |  | Nc1cc[n+](Cc2cccc(-c3cccc(C[n+]4ccc(N)c5ccc(Cl)cc54)c3)c2)c2cc(Cl)ccc12
600 nM | 300 nM |  | c1ccc2c(c1)c(N1CCCCCC1)cc[n+]2Cc1ccc(CCc2ccc(C[n+]3ccc(N4CCCCCC4)c4ccccc43)cc2)cc1
 | 1200 nM |  | CN(c1ccc(Cl)cc1)c1cc[n+](Cc2ccc(-c3ccc(C[n+]4ccc(N(C)c5ccc(Cl)cc5)c5ccccc54)cc3)cc2)c2ccccc12 [RSM-932A]
 | 1500 nM |  | CN(c1ccc(Cl)cc1)c1cc[n+](Cc2cccc(-c3cccc(C[n+]4ccc(N(C)c5ccc(Cl)cc5)c5ccccc54)c3)c2)c2ccccc12
63300 nM | 3200 nM |  | Nc1cc[n+](Cc2ccc(-c3ccc(C[n+]4ccc(N)c5ccc(Cl)cc54)cc3)cc2)c2cc(Cl)ccc12
2200 nM | 500 nM |  | c1ccc2c(c1)c(N1CCCCCC1)cc[n+]2Cc1ccc(-c2ccc(C[n+]3ccc(N4CCCCCC4)c4ccccc43)cc2)cc1
4400 nM | 1600 nM |  | CN(C)c1cc[n+](Cc2cccc(-c3cccc(C[n+]4ccc(N(C)C)c5ccccc54)c3)c2)c2ccccc12
39700 nM | 1700 nM |  | CN(C)c1cc[n+](Cc2ccc(-c3ccc(C[n+]4ccc(N(C)C)c5ccccc54)cc3)cc2)c2ccccc12
96100 nM | 25200 nM |  | Cc1c(N)ccc2c(N(C)c3ccccc3)cc[n+](Cc3ccc(-c4ccc(C[n+]5ccc(N(C)c6ccccc6)c6ccc(N)c(C)c65)cc4)cc3)c12
 | 400 nM |  | Clc1ccc2c(N3CCCC3)cc[n+](Cc3cccc(-c4cccc(C[n+]5ccc(N6CCCC6)c6ccc(Cl)cc65)c4)c3)c2c1

IC50 [1] | IC50 [2] | IC50 [3] | SMILES
 | 700 nM |  | CN(C)c1cc[n+](Cc2cccc(-c3cccc(C[n+]4ccc(N(C)C)c5ccc(Cl)cc54)c3)c2)c2cc(Cl)ccc12
56800 nM | 3800 nM |  | Cc1c(N)ccc2c(N(C)c3ccccc3)cc[n+](Cc3cccc(-c4cccc(C[n+]5ccc(N(C)c6ccccc6)c6ccc(N)c(C)c65)c4)c3)c12
1400 nM | 700 nM |  | CN(c1ccccc1)c1cc[n+](Cc2ccc(CCc3ccc(C[n+]4ccc(N(C)c5ccccc5)c5ccccc54)cc3)cc2)c2ccccc12
> 200000 nM | 1900 nM |  | Nc1cc[n+](Cc2ccc(CCc3ccc(C[n+]4ccc(N)c5ccc(Cl)cc54)cc3)cc2)c2cc(Cl)ccc12
133000 nM | 7000 nM |  | Cc1c(N)ccc2c(N(C)c3ccccc3)cc[n+](Cc3ccc(CCc4ccc(C[n+]5ccc(N(C)c6ccccc6)c6ccc(N)c(C)c65)cc4)cc3)c12
11400 nM | 500 nM |  | CN(c1ccccc1)c1cc[n+](Cc2ccc(-c3ccc(C[n+]4ccc(N(C)c5ccccc5)c5ccc(Cl)cc54)cc3)cc2)c2cc(Cl)ccc12
10200 nM | 500 nM |  | CN(C)c1cc[n+](Cc2ccc(CCc3ccc(C[n+]4ccc(N(C)C)c5ccccc54)cc3)cc2)c2ccccc12
500 nM | 500 nM |  | c1cc(C[n+]2ccc(N3CCCCCC3)c3ccccc32)cc(-c2cccc(C[n+]3ccc(N4CCCCCC4)c4ccccc43)c2)c1
3000 nM | 600 nM |  | CN(c1ccccc1)c1cc[n+](Cc2ccc(-c3ccc(C[n+]4ccc(N(C)c5ccccc5)c5ccccc54)cc3)cc2)c2ccccc12
 | 1200 nM |  | CN(c1ccc(Cl)cc1)c1cc[n+](Cc2ccc(-c3ccc(C[n+]4ccc(N(C)c5ccc(Cl)cc5)c5ccc(Cl)cc54)cc3)cc2)c2cc(Cl)ccc12
1300 nM | 1600 nM |  | c1ccc(Nc2cc[n+](Cc3cccc(-c4cccc(C[n+]5ccc(Nc6ccccc6)c6ccccc65)c4)c3)c3ccccc23)cc1
400 nM | 800 nM |  | CN(c1ccccc1)c1cc[n+](Cc2cccc(-c3cccc(C[n+]4ccc(N(C)c5ccccc5)c5ccccc54)c3)c2)c2ccccc12
46100 nM | 19400 nM |  | Cc1c(N)ccc2c(N(C)c3ccc(Cl)cc3)cc[n+](Cc3ccc(-c4ccc(C[n+]5ccc(N(C)c6ccc(Cl)cc6)c6ccc(N)c(C)c65)cc4)cc3)c12
 | 700 nM |  | CN(c1ccc(Cl)cc1)c1cc[n+](Cc2ccc(CCc3ccc(C[n+]4ccc(N(C)c5ccc(Cl)cc5)c5ccccc54)cc3)cc2)c2ccccc12
 | 1900 nM |  | CN(c1ccc(Cl)cc1)c1cc[n+](Cc2cccc(-c3cccc(C[n+]4ccc(N(C)c5ccc(Cl)cc5)c5ccc(Cl)cc54)c3)c2)c2cc(Cl)ccc12
57500 nM | 19500 nM |  | Cc1c(N)ccc2c(N(C)c3ccc(Cl)cc3)cc[n+](Cc3ccc(CCc4ccc(C[n+]5ccc(N(C)c6ccc(Cl)cc6)c6ccc(N)c(C)c65)cc4)cc3)c12
3500 nM | 500 nM |  | CN(c1ccccc1)c1cc[n+](Cc2ccc(CCc3ccc(C[n+]4ccc(N(C)c5ccccc5)c5ccc(Cl)cc54)cc3)cc2)c2cc(Cl)ccc12
147000 nM | 33000 nM |  | Cc1c(N)ccc2c(N(C)c3ccc(Cl)cc3)cc[n+](Cc3cccc(-c4cccc(C[n+]5ccc(N(C)c6ccc(Cl)cc6)c6ccc(N)c(C)c65)c4)c3)c12
> 200000 nM | 3300 nM |  | Cc1c[n+](Cc2ccc(-c3ccc(C[n+]4cc(C)c(N)c5ccccc54)cc3)cc2)c2ccccc2c1N
 | 200 nM |  | Clc1ccc2c(N3CCCC3)cc[n+](Cc3ccc(CCc4ccc(C[n+]5ccc(N6CCCC6)c6ccc(Cl)cc65)cc4)cc3)c2c1

SMILES | IC50 [1] | IC50 [2] | IC50 [3]
Nc1cc[n+](Cc2ccc(-c3ccc(C[n+]4ccc(N)c5ccccc54)cc3)cc2)c2ccccc12 | 81100 nM | 2200 nM | 
